Laboratory results reported in ChEMBL document CHEMBL1201862, “PubChem BioAssay data set” (2004).
The source made the active and inactive calls.

How the values were obtained:
[1] = HEK-293T viability loss after treatment – luminescence, T-cell screen hits, cytotoxicity control for TCR NF-kB inhibitor project, dose response (AID 489026); assay type: functional, cell-based;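 further: cells exposed to compound about 14 hours before the viability readout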
[2] = biological target: T1, Microphthalmia-associated transcription factor (Homo sapiens, UniProt O75030); assay: reducers of TRPM1 reporter luminescence, concentration series – cell-based, SK-MEL-5, cherry-picked, set 3, MITF inhibitor project, dose response (AID 493073); assay type: functional;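 further: SK-MEL-5 melanoma cells with luciferase driven by the MITF target TRPM1 promoter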
T1 sequence (O75030 whole entry): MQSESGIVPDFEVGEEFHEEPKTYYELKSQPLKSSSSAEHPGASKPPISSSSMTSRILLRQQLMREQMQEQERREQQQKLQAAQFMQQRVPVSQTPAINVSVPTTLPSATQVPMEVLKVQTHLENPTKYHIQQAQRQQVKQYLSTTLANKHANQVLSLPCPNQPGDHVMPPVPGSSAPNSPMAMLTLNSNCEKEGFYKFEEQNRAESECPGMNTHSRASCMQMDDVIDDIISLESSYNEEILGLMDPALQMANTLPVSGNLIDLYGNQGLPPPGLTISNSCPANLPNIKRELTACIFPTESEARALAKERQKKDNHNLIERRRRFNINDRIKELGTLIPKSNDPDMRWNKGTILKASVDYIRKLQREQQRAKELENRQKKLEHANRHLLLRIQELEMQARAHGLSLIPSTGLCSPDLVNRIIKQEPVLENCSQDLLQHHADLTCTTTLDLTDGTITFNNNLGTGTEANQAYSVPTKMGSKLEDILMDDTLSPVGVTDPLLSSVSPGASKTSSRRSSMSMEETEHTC

cells [3] = assay type: functional, cell-based
[4] = biological target: T2, Nuclear receptor subfamily 0 group B member 1 (Homo sapiens, UniProt P51843); assay type: functional, cell-based;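 further: HEK293T cells transfected with SF-1 and DAX-1 plus StAR promoter luciferase reporter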
T2 sequence (P51843 whole entry): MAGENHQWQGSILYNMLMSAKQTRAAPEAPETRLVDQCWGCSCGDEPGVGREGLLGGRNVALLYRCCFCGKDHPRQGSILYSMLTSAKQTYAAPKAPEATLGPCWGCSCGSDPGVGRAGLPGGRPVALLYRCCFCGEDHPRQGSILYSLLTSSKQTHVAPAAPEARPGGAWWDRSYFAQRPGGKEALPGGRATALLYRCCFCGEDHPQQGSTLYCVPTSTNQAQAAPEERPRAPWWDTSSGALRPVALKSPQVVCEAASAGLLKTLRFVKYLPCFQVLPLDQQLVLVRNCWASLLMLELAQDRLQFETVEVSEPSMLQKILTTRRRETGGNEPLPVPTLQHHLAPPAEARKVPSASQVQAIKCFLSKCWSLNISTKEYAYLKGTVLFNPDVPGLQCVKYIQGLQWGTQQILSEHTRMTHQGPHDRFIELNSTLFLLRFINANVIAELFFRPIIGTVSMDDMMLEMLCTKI

Paired box protein Pax-8 = Paired box protein Pax-8 (Homo sapiens, UniProt Q06710); assay: PAX8 transcriptional activity inhibition in RMG-I – RMG-I cells, luciferase, cherry-pick, dose response (AID 687027); assay type: functional, cell-based;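 further: luciferase reporter driven by Pax8 target thyroperoxidase promoter measured by SteadyGlo luminescence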
Chain of Paired box protein Pax-8 (Q06710 whole entry): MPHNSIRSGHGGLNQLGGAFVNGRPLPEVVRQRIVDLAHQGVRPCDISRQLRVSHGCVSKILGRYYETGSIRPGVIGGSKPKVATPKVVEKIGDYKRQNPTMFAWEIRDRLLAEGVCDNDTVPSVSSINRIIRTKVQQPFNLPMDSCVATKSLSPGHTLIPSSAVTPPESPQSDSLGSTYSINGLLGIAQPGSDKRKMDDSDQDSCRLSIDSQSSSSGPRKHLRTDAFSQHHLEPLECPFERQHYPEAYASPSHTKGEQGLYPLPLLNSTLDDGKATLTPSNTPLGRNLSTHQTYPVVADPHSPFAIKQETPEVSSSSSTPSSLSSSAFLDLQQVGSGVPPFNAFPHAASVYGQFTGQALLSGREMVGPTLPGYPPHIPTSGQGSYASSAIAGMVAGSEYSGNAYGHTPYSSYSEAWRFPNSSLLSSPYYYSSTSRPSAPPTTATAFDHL

[5] = Luminescence Cell-Based Dose Response HTS to Identify Inhibitors of 5'UTR Stem-Loop Driven Prion Protein mRNA Translation in H4 Neuroglioblastoma Cells. [Related pubchem assays: 1827 (Project Summary), 1813 (Primary HTS)]; assay type: functional
[6] = alpha-synuclein stem-loop luciferase translation blockers – H4 neuroglioma cells, luminescence, confirmation (AID 1988); assay type: functional, cell-based
[7] = microbe, parasite or virus in culture; assay type: functional; conditions: Mycobacterium tuberculosis
[8] = THP-1 cell cytotoxicity, dose response, cytotoxicity control for non-replicating M. tuberculosis project (AID 489025); assay type: functional
[9] = Vero E6 cell cytotoxicity, dose response, cytotoxicity control for non-replicating M. tuberculosis project, secondary assay (AID 492998); assay type: functional, VeroE6; conditions: Vero C1008
cells [10] = assay type: functional
[11] = biological target: DNA (cytosine-5)-methyltransferase 1 (Homo sapiens, UniProt P26358); assay: inhibition of DNA methylation by DNMT1 – biochemical, fluorescent molecular beacon, confirmation (AID 602386); assay type: functional
Chain of DNA (cytosine-5)-methyltransferase 1 (P26358 whole entry): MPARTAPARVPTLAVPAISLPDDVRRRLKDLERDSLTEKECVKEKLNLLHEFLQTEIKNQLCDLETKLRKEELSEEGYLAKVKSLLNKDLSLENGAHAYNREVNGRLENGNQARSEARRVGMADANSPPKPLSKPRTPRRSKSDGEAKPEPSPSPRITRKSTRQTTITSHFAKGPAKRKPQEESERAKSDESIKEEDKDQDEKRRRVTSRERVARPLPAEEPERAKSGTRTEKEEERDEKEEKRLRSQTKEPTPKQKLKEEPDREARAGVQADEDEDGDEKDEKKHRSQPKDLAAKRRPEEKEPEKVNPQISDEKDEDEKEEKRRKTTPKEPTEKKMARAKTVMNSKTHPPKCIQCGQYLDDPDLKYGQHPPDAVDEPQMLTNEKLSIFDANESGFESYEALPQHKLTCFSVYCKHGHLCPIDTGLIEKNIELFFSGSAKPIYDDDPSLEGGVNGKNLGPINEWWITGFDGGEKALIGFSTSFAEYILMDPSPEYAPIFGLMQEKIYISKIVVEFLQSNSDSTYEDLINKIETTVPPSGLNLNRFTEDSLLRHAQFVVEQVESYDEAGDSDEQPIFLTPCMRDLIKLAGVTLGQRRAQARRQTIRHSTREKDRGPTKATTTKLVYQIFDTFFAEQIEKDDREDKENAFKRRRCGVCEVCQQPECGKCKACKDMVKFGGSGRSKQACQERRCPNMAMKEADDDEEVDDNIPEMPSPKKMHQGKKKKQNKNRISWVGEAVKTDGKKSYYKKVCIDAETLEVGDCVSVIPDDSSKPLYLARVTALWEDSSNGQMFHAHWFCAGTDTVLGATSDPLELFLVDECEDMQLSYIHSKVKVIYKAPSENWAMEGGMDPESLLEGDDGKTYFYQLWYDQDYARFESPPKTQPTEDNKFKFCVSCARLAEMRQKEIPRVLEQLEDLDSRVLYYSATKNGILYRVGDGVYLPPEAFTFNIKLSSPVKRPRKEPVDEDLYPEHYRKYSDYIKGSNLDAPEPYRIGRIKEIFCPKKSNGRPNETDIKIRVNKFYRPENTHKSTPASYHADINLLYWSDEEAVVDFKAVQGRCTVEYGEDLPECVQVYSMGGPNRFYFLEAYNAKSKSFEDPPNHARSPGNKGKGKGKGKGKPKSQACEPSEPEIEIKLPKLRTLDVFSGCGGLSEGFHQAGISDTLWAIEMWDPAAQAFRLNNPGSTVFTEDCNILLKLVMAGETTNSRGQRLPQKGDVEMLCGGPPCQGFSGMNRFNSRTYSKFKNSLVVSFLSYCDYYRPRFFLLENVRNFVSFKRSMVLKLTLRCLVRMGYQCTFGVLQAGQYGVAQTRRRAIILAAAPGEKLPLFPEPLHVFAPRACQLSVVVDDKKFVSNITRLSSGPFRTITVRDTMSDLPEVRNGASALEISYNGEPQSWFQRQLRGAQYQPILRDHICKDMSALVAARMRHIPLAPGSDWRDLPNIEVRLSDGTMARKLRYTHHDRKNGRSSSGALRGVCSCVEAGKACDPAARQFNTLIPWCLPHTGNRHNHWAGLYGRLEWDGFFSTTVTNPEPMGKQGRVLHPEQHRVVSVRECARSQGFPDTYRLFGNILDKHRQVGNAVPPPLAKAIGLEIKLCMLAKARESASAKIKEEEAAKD

[12] = biological target: T3, DNA repair and recombination protein RAD54-like (Homo sapiens, UniProt Q92698); assay: RAD54 Holliday junction migration blockers – biochemical, fluorescence, cherry-picked samples, dose series, confirmation (AID 651657); assay type: functional
T3 sequence (Q92698 whole entry): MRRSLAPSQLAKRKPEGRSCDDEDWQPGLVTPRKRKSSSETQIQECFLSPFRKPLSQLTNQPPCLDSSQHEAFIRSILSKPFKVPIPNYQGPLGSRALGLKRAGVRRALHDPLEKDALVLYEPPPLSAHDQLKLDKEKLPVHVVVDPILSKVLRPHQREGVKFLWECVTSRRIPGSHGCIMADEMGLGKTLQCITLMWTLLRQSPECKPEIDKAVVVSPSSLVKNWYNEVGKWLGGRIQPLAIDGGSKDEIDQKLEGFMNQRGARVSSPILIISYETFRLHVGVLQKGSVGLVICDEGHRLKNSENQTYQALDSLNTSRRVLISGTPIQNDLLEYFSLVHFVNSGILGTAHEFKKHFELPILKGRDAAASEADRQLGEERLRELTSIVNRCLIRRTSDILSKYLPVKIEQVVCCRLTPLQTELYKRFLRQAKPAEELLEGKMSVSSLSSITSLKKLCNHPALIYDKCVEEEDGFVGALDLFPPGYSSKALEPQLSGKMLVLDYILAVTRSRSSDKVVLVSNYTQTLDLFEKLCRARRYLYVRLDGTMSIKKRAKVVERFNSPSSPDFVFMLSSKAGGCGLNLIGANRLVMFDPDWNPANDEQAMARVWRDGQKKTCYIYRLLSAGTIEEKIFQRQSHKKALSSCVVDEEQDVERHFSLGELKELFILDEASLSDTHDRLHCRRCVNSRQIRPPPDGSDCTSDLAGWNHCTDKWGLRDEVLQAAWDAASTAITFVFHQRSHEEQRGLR

[13] = biological target: SWI/SNF-related matrix-associated actin-dependent regulator of chromatin subfamily A member 2 (Homo sapiens, UniProt P51531); assay: Luminescence-based cell-based high throughput dose response assay to identify activators of the function of SWI/SNF related, matrix associated, actin dependent regulator of chromatin, subfamily a, member 2 (SMARCA2, BRM).; assay type: functional
Chain of SWI/SNF-related matrix-associated actin-dependent regulator of chromatin subfamily A member 2 (P51531 whole entry): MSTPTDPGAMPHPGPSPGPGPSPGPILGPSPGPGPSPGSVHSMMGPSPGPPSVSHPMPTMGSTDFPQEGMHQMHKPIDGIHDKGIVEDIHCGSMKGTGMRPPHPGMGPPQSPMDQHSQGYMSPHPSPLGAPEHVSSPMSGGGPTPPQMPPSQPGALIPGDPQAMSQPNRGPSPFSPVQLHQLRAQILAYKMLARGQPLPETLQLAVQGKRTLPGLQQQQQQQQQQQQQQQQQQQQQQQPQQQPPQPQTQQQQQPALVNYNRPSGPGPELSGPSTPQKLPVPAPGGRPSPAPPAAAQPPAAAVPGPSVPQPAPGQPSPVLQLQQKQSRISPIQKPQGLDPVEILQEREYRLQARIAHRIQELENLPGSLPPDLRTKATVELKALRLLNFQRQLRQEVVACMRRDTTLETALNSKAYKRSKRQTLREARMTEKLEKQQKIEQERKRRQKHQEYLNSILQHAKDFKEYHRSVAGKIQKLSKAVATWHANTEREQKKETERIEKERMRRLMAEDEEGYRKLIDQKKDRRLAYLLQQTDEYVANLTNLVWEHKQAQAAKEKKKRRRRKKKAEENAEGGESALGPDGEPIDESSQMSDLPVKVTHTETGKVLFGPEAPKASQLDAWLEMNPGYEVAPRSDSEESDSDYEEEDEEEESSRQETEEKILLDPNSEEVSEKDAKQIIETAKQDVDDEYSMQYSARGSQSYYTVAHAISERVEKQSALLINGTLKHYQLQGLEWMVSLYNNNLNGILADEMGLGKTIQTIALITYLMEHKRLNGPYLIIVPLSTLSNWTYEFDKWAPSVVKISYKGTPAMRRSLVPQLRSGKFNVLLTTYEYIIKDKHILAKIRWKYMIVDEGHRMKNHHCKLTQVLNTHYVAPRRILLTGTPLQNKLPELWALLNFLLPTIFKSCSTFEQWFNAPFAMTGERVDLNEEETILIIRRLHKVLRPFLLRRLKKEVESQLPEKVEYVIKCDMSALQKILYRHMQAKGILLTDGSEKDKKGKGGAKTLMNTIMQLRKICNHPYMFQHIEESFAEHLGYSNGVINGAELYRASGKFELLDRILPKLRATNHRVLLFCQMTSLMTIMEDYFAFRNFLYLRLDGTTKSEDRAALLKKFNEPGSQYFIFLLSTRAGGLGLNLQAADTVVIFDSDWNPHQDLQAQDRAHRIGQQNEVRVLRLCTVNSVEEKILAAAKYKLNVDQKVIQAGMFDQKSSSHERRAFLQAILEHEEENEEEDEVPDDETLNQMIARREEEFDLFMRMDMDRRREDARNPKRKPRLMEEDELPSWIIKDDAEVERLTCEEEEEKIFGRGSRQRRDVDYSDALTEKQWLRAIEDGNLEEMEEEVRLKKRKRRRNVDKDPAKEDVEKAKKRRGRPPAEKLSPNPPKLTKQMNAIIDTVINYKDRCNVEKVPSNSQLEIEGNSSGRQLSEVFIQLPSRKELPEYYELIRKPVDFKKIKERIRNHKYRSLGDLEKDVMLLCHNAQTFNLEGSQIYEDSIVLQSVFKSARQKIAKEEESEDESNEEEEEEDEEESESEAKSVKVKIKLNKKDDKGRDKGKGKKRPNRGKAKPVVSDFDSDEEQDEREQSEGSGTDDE

[14] = Counterscreen for activators of the function of SWI/SNF related, matrix associated, actin dependent regulator of chromatin, subfamily a, member 2 (SMARCA2, BRM): Luminescence-based cell-based high throughput dose response assay to identify non-selective compounds using the VP16 reporter assay.; assay type: functional
[15] = biological target: T4, DNA repair protein RAD52 homolog (Homo sapiens, UniProt P43351); assay type: functional, biochemical
T4 sequence (P43351 whole entry): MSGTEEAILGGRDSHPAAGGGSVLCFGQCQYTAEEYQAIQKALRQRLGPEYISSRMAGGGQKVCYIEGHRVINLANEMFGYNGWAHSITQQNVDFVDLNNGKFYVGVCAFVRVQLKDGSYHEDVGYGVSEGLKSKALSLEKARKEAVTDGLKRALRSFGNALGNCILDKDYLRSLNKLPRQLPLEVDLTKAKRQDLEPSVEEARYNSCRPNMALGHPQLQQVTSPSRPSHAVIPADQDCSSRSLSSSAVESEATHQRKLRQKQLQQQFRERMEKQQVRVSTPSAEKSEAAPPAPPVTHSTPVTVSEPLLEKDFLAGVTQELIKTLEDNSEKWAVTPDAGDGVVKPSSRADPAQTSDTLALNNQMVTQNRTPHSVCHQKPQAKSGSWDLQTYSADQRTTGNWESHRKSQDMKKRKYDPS

[16] = luciferase reporter signal suppression in cells – H4 neuroglioma cells, luminescence, dose response (AID 1990); assay type: functional, cell-based

Structure (SMILES)	IC50 (cells [3])	IC50 [4]	EC50 [5]	EC50 [6]	EC50 [13]	EC50 [14]	other results
COc1ccc(COC(=O)c2cc([N+](=O)[O-])ccc2N2CCOCC2)cc1F	> 67.5 µM (inactive)	> 0.278 µM (active)					IC50 [1]: > 80 µM (inactive); AC50 [2]: 0.023 µM (active); AC50 (Paired box protein Pax-8): < 0.26 µM (active)
O=C(/C=C\Nc1cccc(F)c1)c1ccc2c(c1)OCO2	> 67.5 µM (inactive)	> 0.0926 µM (active)	7.42 µM (active)	7.2 µM (active)			
CN(C)CCOc1nc(-c2ccccc2)nc2c1oc1ccccc12					> 10.1 µM (inactive)	> 91.2 µM (inactive)	CC50 [7]: 12.5 µM (active); CC50 [8]: 34 µM (active); CC50 [9]: > 20 µM (active); IC50 (cells [10]): 10.7 µM (active); IC50 [11]: > 99 µM (inactive); AC50 [12]: 4.97 µM (active)
CCOc1cccc2sc(N(CCN(C)C)C(=O)c3cc4ccccc4cc3OC)nc12							AC50 [15]: 12.5 µM (active)
CCOc1ccc(N(CC(=O)Nc2ccccc2OCC)S(=O)(=O)c2c(C)noc2C)cc1	> 67.5 µM (inactive)	> 67.5 µM (inactive)	0.495 µM (active)	0.567 µM (active)			EC50 [16]: 2.32 µM (active)
COCc1cc(O)n2nc(-c3ccc(C)cc3)cc2n1					> 91.2 µM (inactive)	> 91.2 µM (inactive)	
